From PubChem BioAssay AID1224901

System: MCF7 viability, PrestoBlue fluorescence
Test: antiproliferative effect, MCF7 breast cancer line – cell-based, mTOR inhibitor project, dose response (AID 1224901)

- EC50: 8 nM
Structure (SMILES): CCOC(Cn1nc(-c2ccc3oc(N)nc3c2)c2c(N)ncnc21)OCC
